Converted amounts (≈) assume the structure as drawn.
What was measured:
Pseudomonas aeruginosa = test: Antibacterial activity against Pseudomonas aeruginosa by twofold serial dilution method; type: functional
Staphylococcus aureus = test: Antibacterial activity against Staphylococcus aureus by twofold serial dilution method; type: functional
Salmonella enterica = test: Antibacterial activity against Salmonella typhi by twofold serial dilution method; type: functional, Salmonella enterica subsp. enterica serovar Typhi
Escherichia coli = test: Antibacterial activity against Escherichia coli by twofold serial dilution method; type: functional
Klebsiella pneumoniae = test: Antibacterial activity against Klebsiella pneumoniae by twofold serial dilution method; type: functional
Candida albicans = test: Antifungal activity against Candida albicans by twofold serial dilution method; type: functional
Candida = test: Antifungal activity against Candida 51 by twofold serial dilution method; type: functional
Rhizopus = test: Antifungal activity against Rhizopus sp. by twofold serial dilution method; type: functional
Aspergillus niger = test: Antifungal activity against Aspergillus niger by twofold serial dilution method; type: functional
Aspergillus flavus = test: Antifungal activity against Aspergillus flavus by twofold serial dilution method; type: functional

SMILES | MIC (Pseudomonas aeruginosa) [µg/mL] | MIC (Staphylococcus aureus) [µg/mL] | MIC (Salmonella enterica) [µg/mL] | MIC (Escherichia coli) [µg/mL] | MIC (Klebsiella pneumoniae) [µg/mL] | MIC (Candida albicans) [µg/mL] | MIC (Candida) [µg/mL] | MIC (Rhizopus) [µg/mL] | MIC (Aspergillus niger) [µg/mL] | MIC (Aspergillus flavus) [µg/mL]
CN1C(c2ccc(Cl)cc2)C2CCCC(C2=NOCc2ccccc2)C1c1ccc(Cl)cc1 (stereo unspecified) | 12.5 (≈ 26.1 µM) | 12.5 (≈ 26.1 µM) | 25 (≈ 52.1 µM) | 50 (≈ 104 µM) | 50 (≈ 104 µM) | 25 (≈ 52.1 µM) | 12.5 (≈ 26.1 µM) | 12.5 (≈ 26.1 µM) | 12.5 (≈ 26.1 µM) | 100 (≈ 209 µM)
COc1ccc(C2NC(c3ccc(OC)cc3)C3C(=NOCc4ccccc4)C2C(c2ccc(OC)cc2)NC3c2ccc(OC)cc2)cc1 (stereo unspecified) | 12.5 (≈ 18.7 µM) | 25 (≈ 37.3 µM) |  | 50 (≈ 74.6 µM) | 100 (≈ 149 µM) | 50 (≈ 74.6 µM) | 100 (≈ 149 µM) | 50 (≈ 74.6 µM) | 25 (≈ 37.3 µM) | 50 (≈ 74.6 µM)
O=C(O)c1cn(C2CC2)c2cc(N3CCNCC3)c(F)cc2c1=O [CIPROFLOXACIN] |  |  | 50 (≈ 151 µM) | 25 (≈ 75.4 µM) |  |  |  |  |  | 
Cc1ccc(C2C3CCCC(C3=NOCc3ccccc3)C(c3ccc(C)cc3)N2C)cc1 (stereo unspecified) | 25 (≈ 57 µM) | 25 (≈ 57 µM) | 50 (≈ 114 µM) | 100 (≈ 228 µM) | 100 (≈ 228 µM) | 50 (≈ 114 µM) | 50 (≈ 114 µM) | 50 (≈ 114 µM) | 100 (≈ 228 µM) | 25 (≈ 57 µM)
Cc1ccc(C2NC(c3ccc(C)cc3)C3C(=NOCc4ccccc4)C2C(c2ccc(C)cc2)NC3c2ccc(C)cc2)cc1 (stereo unspecified) | 6.25 (≈ 10.3 µM) | 25 (≈ 41.3 µM) |  | 25 (≈ 41.3 µM) | 100 (≈ 165 µM) | 25 (≈ 41.3 µM) | 50 (≈ 82.5 µM) | 50 (≈ 82.5 µM) | 50 (≈ 82.5 µM) | 25 (≈ 41.3 µM)
Fc1cccc(C2NC(c3cccc(F)c3)C3C(=NOCc4ccccc4)C2C(c2cccc(F)c2)NC3c2cccc(F)c2)c1 (stereo unspecified) | 12.5 (≈ 20.1 µM) | 12.5 (≈ 20.1 µM) |  | 25 (≈ 40.2 µM) | 50 (≈ 80.4 µM) | 25 (≈ 40.2 µM) | 50 (≈ 80.4 µM) | 50 (≈ 80.4 µM) | 50 (≈ 80.4 µM) | 25 (≈ 40.2 µM)
Cc1ccc(C2NC(c3ccc(C)cc3)C3CCCC2C3=NOCc2ccccc2)cc1 (stereo unspecified) | 25 (≈ 58.9 µM) | 25 (≈ 58.9 µM) | 100 (≈ 236 µM) | 100 (≈ 236 µM) | 200 (≈ 471 µM) | 50 (≈ 118 µM) | 100 (≈ 236 µM) | 25 (≈ 58.9 µM) | 100 (≈ 236 µM) | 100 (≈ 236 µM)
Clc1ccc(C2NC(c3ccc(Cl)cc3)C3CCCC2C3=NOCc2ccccc2)cc1 (stereo unspecified) | 12.5 (≈ 26.9 µM) | 25 (≈ 53.7 µM) | 25 (≈ 53.7 µM) | 50 (≈ 107 µM) | 100 (≈ 215 µM) | 25 (≈ 53.7 µM) | 50 (≈ 107 µM) | 12.5 (≈ 26.9 µM) | 25 (≈ 53.7 µM) | 50 (≈ 107 µM)
Fc1ccc(C2NC(c3ccc(F)cc3)C3CCCC2C3=NOCc2ccccc2)cc1 (stereo unspecified) | 25 (≈ 57.8 µM) | 100 (≈ 231 µM) | 50 (≈ 116 µM) | 25 (≈ 57.8 µM) | 50 (≈ 116 µM) | 25 (≈ 57.8 µM) | 100 (≈ 231 µM) | 50 (≈ 116 µM) | 50 (≈ 116 µM) | 100 (≈ 231 µM)
Clc1ccc(C2NC(c3ccc(Cl)cc3)C3C(=NOCc4ccccc4)C2C(c2ccc(Cl)cc2)NC3c2ccc(Cl)cc2)cc1 (stereo unspecified) | 6.25 (≈ 9.09 µM) | 25 (≈ 36.4 µM) |  | 50 (≈ 72.7 µM) | 50 (≈ 72.7 µM) | 12.5 (≈ 18.2 µM) | 50 (≈ 72.7 µM) | 25 (≈ 36.4 µM) | 25 (≈ 36.4 µM) | 12.5 (≈ 18.2 µM)
c1ccc(CON=C2C3C(c4ccccc4)NC(c4ccccc4)C2C(c2ccccc2)NC3c2ccccc2)cc1 (stereo unspecified) | 100 (≈ 182 µM) | 200 (≈ 364 µM) |  | 100 (≈ 182 µM) | > 200 | 100 (≈ 182 µM) | > 200 | 200 (≈ 364 µM) | 100 (≈ 182 µM) | 200 (≈ 364 µM)
CN1C(c2ccc(F)cc2)C2CCCC(C2=NOCc2ccccc2)C1c1ccc(F)cc1 (stereo unspecified) | 12.5 (≈ 28 µM) | 50 (≈ 112 µM) | 25 (≈ 56 µM) | 12.5 (≈ 28 µM) | 25 (≈ 56 µM) | 12.5 (≈ 28 µM) | 25 (≈ 56 µM) | 25 (≈ 56 µM) | 25 (≈ 56 µM) | 50 (≈ 112 µM)
Clc1ccccc1C1NC(c2ccccc2Cl)C2CCCC1C2=NOCc1ccccc1 (stereo unspecified) | 6.25 (≈ 13.4 µM) | 12.5 (≈ 26.9 µM) | 50 (≈ 107 µM) | 12.5 (≈ 26.9 µM) | 50 (≈ 107 µM) | 12.5 (≈ 26.9 µM) | 6.25 (≈ 13.4 µM) | 50 (≈ 107 µM) | 50 (≈ 107 µM) | 12.5 (≈ 26.9 µM)
c1ccc(CON=C2C3CCCC2C(c2ccccc2)NC3c2ccccc2)cc1 (stereo unspecified) | 200 (≈ 504 µM) | > 200 | 200 (≈ 504 µM) | 100 (≈ 252 µM) | > 200 | 100 (≈ 252 µM) | 200 (≈ 504 µM) | > 200 | > 200 | 200 (≈ 504 µM)
COc1ccc(C2C3CCCC(C3=NOCc3ccccc3)C(c3ccc(OC)cc3)N2C)cc1 (stereo unspecified) | 25 (≈ 53.1 µM) | 50 (≈ 106 µM) | 50 (≈ 106 µM) | 25 (≈ 53.1 µM) | 100 (≈ 212 µM) | 25 (≈ 53.1 µM) | 50 (≈ 106 µM) | 50 (≈ 106 µM) | 25 (≈ 53.1 µM) | 100 (≈ 212 µM)
Fc1ccc(C2NC(c3ccc(F)cc3)C3C(=NOCc4ccccc4)C2C(c2ccc(F)cc2)NC3c2ccc(F)cc2)cc1 (stereo unspecified) | 6.25 (≈ 10.1 µM) | 12.5 (≈ 20.1 µM) |  | 12.5 (≈ 20.1 µM) | 25 (≈ 40.2 µM) | 12.5 (≈ 20.1 µM) | 25 (≈ 40.2 µM) | 12.5 (≈ 20.1 µM) | 25 (≈ 40.2 µM) | 50 (≈ 80.4 µM)
C[C@@H]1[C@H](O)[C@@H](C)/C=C/C=C/C=C/C=C/C=C/C=C/C=C/[C@H](O[C@@H]2O[C@H](C)[C@@H](O)[C@H](N)[C@@H]2O)C[C@@H]2O[C@](O)(C[C@@H](O)C[C@@H](O)[C@H](O)CC[C@@H](O)C[C@@H](O)CC(=O)O[C@H]1C)C[C@H](O)[C@H]2C(=O)O [AMPHOTERICIN B] |  |  |  |  |  | 25 (≈ 27.1 µM) | 25 (≈ 27.1 µM) | 25 (≈ 27.1 µM) | 50 (≈ 54.1 µM) | 50 (≈ 54.1 µM)
COc1ccc(C2NC(c3ccc(OC)cc3)C3CCCC2C3=NOCc2ccccc2)cc1 (stereo unspecified) | 50 (≈ 110 µM) | 100 (≈ 219 µM) | 50 (≈ 110 µM) | 50 (≈ 110 µM) | 100 (≈ 219 µM) | 50 (≈ 110 µM) | 50 (≈ 110 µM) | 50 (≈ 110 µM) | 100 (≈ 219 µM) | 100 (≈ 219 µM)
CN1C(c2ccccc2)C2CCCC(C2=NOCc2ccccc2)C1c1ccccc1 (stereo unspecified) | 100 (≈ 244 µM) | 200 (≈ 487 µM) | 100 (≈ 244 µM) | 100 (≈ 244 µM) | 200 (≈ 487 µM) | 50 (≈ 122 µM) | 200 (≈ 487 µM) | 50 (≈ 122 µM) | 200 (≈ 487 µM) | > 200
Fc1cccc(C2NC(c3cccc(F)c3)C3CCCC2C3=NOCc2ccccc2)c1 (stereo unspecified) | 25 (≈ 57.8 µM) | 100 (≈ 231 µM) | 100 (≈ 231 µM) | 25 (≈ 57.8 µM) | 100 (≈ 231 µM) | 50 (≈ 116 µM) | 200 (≈ 462 µM) | 50 (≈ 116 µM) | 100 (≈ 231 µM) | 100 (≈ 231 µM)

Reference: ChEMBL document CHEMBL1153710, “Synthesis, stereochemistry and antimicrobial studies of novel oxime ethers of aza/diazabicycles” (2009)
